Each structure is given as a SMILES string. Counter-ions that a name gives are not always drawn.

For the assay, the target named is T1, recombinant IRAK-4 kinase (Homo sapiens, UniProt Q9NWZ3).
T1 construct: purchased Millipore, USA
T1 sequence (Q9NWZ3 1-460): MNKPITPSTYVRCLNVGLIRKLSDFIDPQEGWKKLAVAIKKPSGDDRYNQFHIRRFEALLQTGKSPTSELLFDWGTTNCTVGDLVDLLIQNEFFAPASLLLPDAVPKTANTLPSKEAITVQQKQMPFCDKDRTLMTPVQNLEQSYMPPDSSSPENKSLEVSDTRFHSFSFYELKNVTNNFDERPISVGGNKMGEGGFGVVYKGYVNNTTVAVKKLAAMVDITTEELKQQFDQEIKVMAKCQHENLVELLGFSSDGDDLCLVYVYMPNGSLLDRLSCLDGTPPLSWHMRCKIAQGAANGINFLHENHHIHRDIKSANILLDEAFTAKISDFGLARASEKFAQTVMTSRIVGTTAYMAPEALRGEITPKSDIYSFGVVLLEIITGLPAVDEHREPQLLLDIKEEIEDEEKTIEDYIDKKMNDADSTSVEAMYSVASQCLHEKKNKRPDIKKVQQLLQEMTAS
As to the kind of experiment: IRAK-4 Biochemical Assay (TR-FRET). Conditions: 5 ng IRAK-4 kinase, 100 nM Biotin Histone H3, 20 μM ATP, 30 minutes pre-incubation, read-out: IC50 values for IRAK4 activity. The procedure:
Compounds were tested for their potential to inhibit IRAK-4 enzyme in a TR-FRET assay using recombinant IRAK-4 kinase from Millipore, USA. The assay buffer was 50 mM Tris-HCl pH 7.5, 20 mM MgCl2, 1 mM EGTA, 2 mM DTT, 3 mM MnCl2 and 0.01% Tween20. 5 ng of IRAK-4 kinase was used for the assay. After pre-incubation of enzyme with test compound for 30 minutes at room temperature, a substrate mix containing 100 nM Biotin Histone H3 (Millipore, USA) and 20 μM ATP (Sigma, USA) was added and the reaction was incubated for 30 minutes. Post incubation, the reaction was stopped by the addition of stop mix containing 40 mM EDTA, 1 nM of Europium-Anti-Phospho-Histone H3 (Ser10) antibody (Perkin Elmer, USA) and 20 nM Sure Light Allophycocyanin-Streptavidin (Perkin Elmer, USA).
For `O=C(Nc1cc2oc(N3CCCCC3)nc2nc1N1CCCCC1)c1cccc(-c2cn[nH]c2)n1` [Example 4, N-(2,5-di(piperidin-1-yl)oxazolo[4,5-b]pyridin-6-yl)-6-(1H-pyrazol-4-yl)picolinamide hydrochloride], the IC50 was 50 to 100 nM.

As to `Cc1cc(-c2nc(C(=O)Nc3cc4oc(N5CCCCC5)nc4nc3N3CCCCC3)co2)ccn1` [Example 5, N-(2,5-di(piperidin-1-yl)oxazolo[4,5-b]pyridin-6-yl)-2-(2-methylpyridin-4-yl)oxazole-4-carboxamide], the IC50 was < 50 nM.

As for `O=C(Nc1cc2oc(N3CCOCC3)nc2nc1N1CCCCC1)c1cccc(Cl)n1` [Example 8, 6-chloro-N-(2-morpholino-5-(piperidin-1-yl)oxazolo[4,5-b]pyridin-6-yl)picolinamide], the IC50 was < 50 nM.

In the case of `Cn1cc(-c2cccc(C(=O)Nc3cc4oc(N5CCCCC5)nc4nc3N3CCCCC3)n2)cn1` [Example 9, N-(2,5-di(piperidin-1-yl)oxazolo[4,5-b]pyridin-6-yl)-6-(1-methyl-1H-pyrazol-4-yl)picolinamide], the IC50 is 50 to 100 nM.

For `O=C(Nc1cc2oc(N3CCCCC3)nc2nc1N1CCCCC1)c1coc(-c2ccnc(Cl)c2)n1` [Example 10, 2-(2-chloropyridin-4-yl)-N-(2,5-di(piperidin-1-yl)oxazolo[4,5-b]pyridin-6-yl)oxazole-4-carboxamide], the IC50 was < 50 nM.

With `Cc1cc(-c2nc(C(=O)Nc3cc4oc(N5CCOCC5)nc4nc3N[C@H]3CCNC3)co2)ccn1` [Example 11, (S)-2-(2-methylpyridin-4-yl)-N-(2-morpholino-5-(pyrrolidin-3-ylamino)oxazolo[4,5-b]pyridin-6-yl)oxazole-4-carboxamide], the IC50 was < 50 nM.

For `Nc1ccc(-c2cccc(C(=O)Nc3cc4sc(N5CCOCC5)nc4cn3)n2)cn1` [Example 13, 6′-amino-N-(2-morpholinothiazolo[4,5-c]pyridin-6-yl)-[2,3′-bipyridine]-6-carboxamide], the IC50 was < 50 nM.

As for `Nc1ccc(-c2cccc(C(=O)Nc3ccc4nc(N5CCOCC5)sc4n3)n2)cn1` [Example 14, 6′-amino-N-(2-morpholinothiazolo[5,4-b]pyridin-5-yl)-[2,3′-bipyridine]-6-carboxamide], the IC50 is < 50 nM.

With `Nc1ccc(-c2cccc(C(=O)Nc3cnc4nc(N5CCOCC5)sc4c3)n2)cn1` [Example 16, 6′-amino-N-(2-morpholinothiazolo[4,5-b]pyridin-6-yl)-[2,3′-bipyridine]-6-carboxamide], the IC50 is < 50 nM.

For `O=C(Nc1cnc2nc(N3CCOCC3)sc2c1)c1cccc(-c2cn[nH]c2)n1` [Example 17, N-(2-morpholinothiazolo[4,5-b]pyridin-6-yl)-6-(1H-pyrazol-4-yl)picolinamide], the IC50 was > 100 nM.

In the case of `Cc1cc(-c2nc(C(=O)Nc3cc4sc(N5CCOCC5)nc4nc3N3CCCCC3)co2)ccn1` [Example 20, 2-(2-methylpyridin-4-yl)-N-(2-morpholino-5-(piperidin-1-yl)thiazolo[4,5-b]pyridin-6-yl)oxazole-4-carboxamide], the IC50 is < 50 nM.

Turning to `O=C(Nc1cc2sc(N3CCOCC3)nc2nc1N1CCCCC1)c1cccc(-c2cn[nH]c2)n1` [Example 21, N-(2-morpholino-5-(piperidin-1-yl)thiazolo[4,5-b]pyridin-6-yl)-6-(1H-pyrazol-4-yl)picolinamide], the IC50 is < 50 nM.

For `O=C(Nc1cc2sc(N3CCCCC3)nc2nc1N1CCCCC1)c1cccc(-c2cn[nH]c2)n1` [Example 22, N-(2,5-di(piperidin-1-yl)thiazolo[4,5-b]pyridin-6-yl)-6-(1H-pyrazol-4-yl)picolinamide], the IC50 was < 50 nM.

In the case of `Cc1cc(-c2nc(C(=O)Nc3cc4sc(N5CCCCC5)nc4nc3N3CCCCC3)co2)ccn1` [Example 23, N-(2,5-di(piperidin-1-yl)thiazolo[4,5-b]pyridin-6-yl)-2-(2-methylpyridin-4-yl)oxazole-4-carboxamide], the IC50 is < 50 nM.

These data come from patent US10047104B2, “Bicyclic heterocyclyl derivatives as IRAK4 inhibitors” (Aurigene Discovery Technologies Limited, priority 2014, dated 2018).
